We go through 26 compounds from ChEMBL document CHEMBL5247582 (Eur J Med Chem, 2022).

The pIC50 is −log10 of the IC50, conventionally taken in molar units.

For series [1], the target named is T1, Solute carrier family 22 member 12 (Homo sapiens, UniProt Q96S37).
T1 sequence (Q96S37 whole entry): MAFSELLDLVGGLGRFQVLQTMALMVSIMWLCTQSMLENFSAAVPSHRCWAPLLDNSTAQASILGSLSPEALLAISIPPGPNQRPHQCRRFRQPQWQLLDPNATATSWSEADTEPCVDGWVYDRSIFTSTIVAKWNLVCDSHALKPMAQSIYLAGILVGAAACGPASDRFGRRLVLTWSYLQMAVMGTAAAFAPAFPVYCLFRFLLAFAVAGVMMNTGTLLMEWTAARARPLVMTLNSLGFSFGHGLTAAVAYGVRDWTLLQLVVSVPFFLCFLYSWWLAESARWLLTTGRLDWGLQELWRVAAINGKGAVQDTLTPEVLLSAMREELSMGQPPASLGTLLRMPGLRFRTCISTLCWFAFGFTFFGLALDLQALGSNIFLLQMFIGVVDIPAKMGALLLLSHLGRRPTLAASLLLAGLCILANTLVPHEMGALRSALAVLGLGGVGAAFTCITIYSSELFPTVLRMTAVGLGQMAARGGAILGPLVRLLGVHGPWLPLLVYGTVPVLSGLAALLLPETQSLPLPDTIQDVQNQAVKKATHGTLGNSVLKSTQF
Briefly: Inhibition of human URAT1 mediated 14C-uric acid uptake expressed in HEK293 cells using 14C-uric acid as substrate incubated for 30 mins by liquid scintillation counting analysis. In kind it is cell-based.

A short description of series [2]: Acute toxicity in Kunming female mouse assessed as lethargy at 1000 mg/kg, IG. In kind it is organism-based. As to conditions: in vivo, po.
Series [3] can be described thus: Acute toxicity in Kunming female mouse assessed as survival rate at 1000 mg/kg, IG. In kind it is organism-based. The settings on record: in vivo, po, read-out: Activity.
In series [4] the test system is Mus musculus. As to the kind of experiment: Anti-hyperuricemic activity against hypoxanthine/potassium oxonate-induced Kunming mouse model assessed as decrease in serum uric acid ratio at 2 mg/kg, sc measured after 4 hrs. It is filed as functional. Also noted: scale not given: the % may be the effect or the level left.
Series [5] concerns Mus musculus. Briefly: Anti-hyperuricemic activity against hypoxanthine/potassium oxonate-induced Kunming mouse model assessed as reduction in serum uric acid level at 2 mg/kg, sc measured after 4 hrs (reference value: 1010.00 +/- 51.16 uM). In kind it is functional.
Series [6] addresses T2, Solute carrier family 2, facilitated glucose transporter member 9 (Homo sapiens, UniProt Q9NRM0).
T2 sequence (Q9NRM0 whole entry): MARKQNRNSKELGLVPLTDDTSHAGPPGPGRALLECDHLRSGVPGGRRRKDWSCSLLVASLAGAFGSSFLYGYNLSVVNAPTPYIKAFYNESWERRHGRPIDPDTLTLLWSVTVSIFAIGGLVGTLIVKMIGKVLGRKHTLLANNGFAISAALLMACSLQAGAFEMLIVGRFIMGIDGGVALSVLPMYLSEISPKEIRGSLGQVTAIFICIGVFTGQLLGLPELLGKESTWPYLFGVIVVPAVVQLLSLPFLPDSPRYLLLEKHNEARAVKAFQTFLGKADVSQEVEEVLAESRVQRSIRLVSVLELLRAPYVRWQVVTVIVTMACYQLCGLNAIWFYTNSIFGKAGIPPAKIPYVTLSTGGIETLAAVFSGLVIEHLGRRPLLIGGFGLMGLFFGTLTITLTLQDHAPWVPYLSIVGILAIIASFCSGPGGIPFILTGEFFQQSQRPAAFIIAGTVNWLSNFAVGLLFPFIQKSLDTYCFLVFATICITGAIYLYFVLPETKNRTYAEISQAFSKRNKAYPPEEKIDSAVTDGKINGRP
As to the kind of experiment: Inhibition of GLUT9 (unknown origin) transfected in HEK293 cells assessed as inhibition of uric acid-induced current by whole cell patch clamp analysis. In kind it is cell-based.

Series [7] in a line: Acute toxicity in Kunming female mouse assessed as clonic convulsion at 1000 mg/kg, IG. It is filed as organism-based. As to conditions: in vivo, po.
Series [8] is described as follows: Acute toxicity in Kunming female mouse assessed as ruffled fur at 1000 mg/kg, IG. In kind it is organism-based. The settings on record: in vivo, po.
Series [9] in a line: Acute toxicity in Kunming female mouse assessed as effect on body weight changes at 1000 mg/kg, IG measured for 7 days. It is filed as organism-based. As to conditions: in vivo, po, 168 h, time 7 day.
Series [10] is described as follows: Acute toxicity in Kunming female mouse assessed as anorexia at 1000 mg/kg, IG. In kind it is organism-based. As to conditions: in vivo, po.
Series [11] can be described thus: Acute toxicity in Kunming male mouse assessed as survival rate at 1000 mg/kg, IG. In kind it is organism-based. As to conditions: in vivo, po, read-out: Activity.
Series [12] deals with T3, Solute carrier family 2, facilitated glucose transporter member 9 (Homo sapiens) (UniProt Q9NRM0).
T3 sequence (whole entry): T2 sequence (Q9NRM0 whole entry)
Briefly: Inhibition of GLUT9 (unknown origin) transfected in HEK293 cells assessed as inhibition of uric acid-induced current at 100 uM by whole cell patch clamp analysis. In kind it is cell-based. For orientation: Patch clamp records ionic current or voltage across a cell membrane.

pIC50: −log10 of the molar value. Active and inactive are the calls of the source. No cut-off for these calls is given here.

In the case of `CC(C)(C)c1ccc(S(=O)(=O)NC(=O)CSc2nc3sccc3c(=O)n2-c2ccc(C3CC3)c3ccccc23)cc1`, in [1], the pIC50 is 4.87.
Take `O=C(CSc1nc2sccc2c(=O)n1-c1ccc(C2CC2)c2ccccc12)NS(=O)(=O)c1ccc(Br)cc1`: the Activity entry was “Non-Toxic” in series [2]; 73.29% in the series on Mus musculus [4]; 336.67 µM in the series on Mus musculus [5]; “Non-Toxic” in series [7]; “Non-Toxic” in [8]; “Non-Toxic” in series [9]. For the same compound, the Activity entry in series [10] was “Non-Toxic”. The survival in [3] and in series [11] was 100% throughout. The figures for the pIC50 in series [6] and in series [1] were 4.25 and 5.12, respectively.
Turning to `O=C(CSc1nc2sccc2c(=O)n1-c1ccc(C2CC2)c2ccccc12)NS(=O)(=O)C1CC1`, the pIC50 in series [1] was 4.93.
Still for that read-out and setting: then `O=C(CSc1nc2sccc2c(=O)n1-c1ccc(C2CC2)c2ccccc12)NS(=O)(=O)c1cccc([N+](=O)[O-])c1`, with 4.94.
On the same count and under the same terms, then `CC(C)(C)S(=O)(=O)NC(=O)CSc1nc2sccc2c(=O)n1-c1ccc(C2CC2)c2ccccc12`, with 4.95.
Consider `O=C(CSc1nc2sccc2c(=O)n1-c1ccc(C2CC2)c2ccccc12)NS(=O)(=O)c1cc(F)cc(F)c1`, for which the Activity stood at 54.17% with Mus musculus [4] and 512.33 µM with Mus musculus [5]. Besides, the pIC50 in series [1] is 5.11.
Consider `O=C(O)CSc1nnc(Br)n1-c1ccc(C2CC2)c2ccccc12`, for which the survival in series [3] was determined as 20%; in [11], 40%. Further, the Activity in the series on Mus musculus [4] was 26%; in the series on Mus musculus [5], 763 µM. For the same compound, the inhibition result in series [12] was “inactive”.
As for `O=C(O)CSc1ccncc1C(=O)N1CCc2ccccc2C1`, the Activity was determined as 28.73% in the series with Mus musculus [4] and 682.25 µM in the series on Mus musculus [5].
For `CC(Sc1ccncc1C(=O)N1CCc2ccccc2C1)C(=O)O` (configuration not stated) the same measures were 52.9% and 479.67 µM.
As for `O=C(CSc1nc2sccc2c(=O)n1-c1ccc(C2CC2)c2ccccc12)NS(=O)(=O)c1ccc(O)cc1`, the pIC50 in [1] was 4.69.
`CC(Sc1ccncc1C(=O)N1CCOc2ccccc21)C(=O)O` (configuration not stated): the Activity in the series on Mus musculus [4] worked out at 40.93%; with Mus musculus [5], 580 µM.
Regarding `O=C(CSc1nc2sccc2c(=O)n1-c1ccc(C2CC2)c2ccccc12)NS(=O)(=O)c1ccc(F)cc1F`, the negative-log IC50 (pIC50) in series [1] is 5.00.
As to `CCS(=O)(=O)NC(=O)CSc1nc2sccc2c(=O)n1-c1ccc(C2CC2)c2ccccc12`, the Activity with Mus musculus [4] is 36.39%; in the series with Mus musculus [5], 675.67 µM. Besides, the pIC50 in series [1] is 5.10.
Consider `O=C(CSc1nc2sccc2c(=O)n1-c1ccc(C2CC2)c2ccccc12)NS(=O)(=O)c1ccccc1`, for which, in [1], the pIC50 is 4.94.
Turning to `O=C(c1cnccc1SC1(C(=O)O)CCC1)N1CCc2ccccc2C1`, the Activity came to 36% with Mus musculus [4] and 621.33 µM in the series on Mus musculus [5].
Regarding `O=C(CSc1nc2sccc2c(=O)n1-c1ccc(C2CC2)c2ccccc12)NS(=O)(=O)c1ccc([N+](=O)[O-])cc1`, the pIC50 in series [1] is 5.01.
The same measure, in the same setting: the value for `O=C(CSc1nc2sccc2c(=O)n1-c1ccc(C2CC2)c2ccccc12)NS(=O)(=O)c1ccccc1[N+](=O)[O-]` was 5.01.
In series [1] (hek293), `O=C(O)CSc1nc2sccc2c(=O)n1-c1ccc(C2CC2)c2ccccc12` had a pIC50 of 5.49.
`O=C(CSc1nc2sccc2c(=O)n1-c1ccc(C2CC2)c2ccccc12)NS(=O)(=O)c1ccc(Cl)s1`: the pIC50 in series [1] is 5.01.
`O=C(CSc1nc2sccc2c(=O)n1-c1ccc(C2CC2)c2ccccc12)NS(=O)(=O)c1ccc(F)cc1`: the pIC50 in series [1] was 4.94.
For `CS(=O)(=O)NC(=O)CSc1nc2sccc2c(=O)n1-c1ccc(C2CC2)c2ccccc12`, the Activity in the series with Mus musculus [4] was 51.85%; with Mus musculus [5], 533.67 µM. In [1], this compound showed a pIC50 of 5.14.
In series [1], `O=C(CSc1nc2sccc2c(=O)n1-c1ccc(C2CC2)c2ccccc12)NS(=O)(=O)c1ccc(Cl)cc1` had a pIC50 of 4.92.
Still for that read-out and setting: then `CC(C)S(=O)(=O)NC(=O)CSc1nc2sccc2c(=O)n1-c1ccc(C2CC2)c2ccccc12`, with 5.03.
For the compound `O=C(O)CCSc1ccncc1C(=O)N1CCOc2ccccc21`, the Activity with Mus musculus [4] is 24.3%; in the series on Mus musculus [5], 719.33 µM.
With `O=C(O)CSc1ccncc1C(=O)N1CCOc2ccccc21`, the Activity in the series on Mus musculus [4] turned out to be 14.4%; with Mus musculus [5], 802.33 µM.
With `O=C(CSc1nc2sccc2c(=O)n1-c1ccc(C2CC2)c2ccccc12)NS(=O)(=O)c1ccc(C(F)(F)F)cc1`, in [1], the pIC50 is 4.79.
